From patent US20050192547A1, “Combinations of antiseptic and antibiotic agents containing medical devices” (priority 2002, published 2005)
Values after ≈ are worked out from the molar mass of the structure shown. Read-outs that look alike come from different tables or passages of the source.

Assays:
S. epidermidis [1] = experiment: Minimum inhibitory concentration in Trypticase Soy Broth, synergy (fractional inhibitory concentration); type: cell-based, Staphylococcus epidermidis
S. epidermidis [2] = experiment: microbe, parasite or virus in culture; type: cell-based, Staphylococcus epidermidis; conditions: for MIC: Staphylococcus epidermidis
[3] = tetrahydrofuran/methanol solvent systems
[4] = Staphylococcus epidermidis, inoculum of 10^4 cfu/ml, read-out: MIC
[5] = after 10-20 passages, inoculum 10^4 cfu/ml
[6] = after 10 transfers, inoculum 10^6 cfu/ml

Compound | MIC (S. epidermidis [2]; read-out: MIC AFTER PASSAGE) [µg/mL] | INCREASE IN MIC (S. epidermidis [2]; [5]) | MIC (S. epidermidis [2]; read-out: MIC BEFORE PASSAGE) [µg/mL] | other results
CC(=O)O.CC(=O)O.NC(=N\CCCCCC/N=C(N)/N=C(\N)Nc1ccc(Cl)cc1)/N=C(\N)Nc1ccc(Cl)cc1 [Chlorhexidine (CHX), chlorhexidine diacetate] |  |  |  | MIC (S. epidermidis [1]; inoculum of 10^4 cfu/ml): 0.5 µg/mL; INCREASE IN MIC (S. epidermidis [2]): 2 fold; MIC AFTER PASSAGE (S. epidermidis [2]): 1.0 µg/mL; MIC BEFORE PASSAGE (S. epidermidis [2]): 0.5 µg/mL
CN(C)c1ccc(O)c2c1C[C@H]1C[C@H]3[C@H](N(C)C)C(O)=C(C(N)=O)C(=O)[C@@]3(O)C(O)=C1C2=O [Minocycline (M), minocycline] | 0.156 (≈ 0.341 µM) | 2 fold |  | MIC (S. epidermidis [1]; [4]): 0.078 µg/mL; INCREASE IN MIC (S. epidermidis [2]; [6]): 4 fold
CCn1cc(C(=O)O)c(=O)c2cc(F)c(N3CCNCC3)cc21 [Norfloxacin (Nf), norfloxacin] | 2 (≈ 6.26 µM) | 40 fold |  | MIC (S. epidermidis [1]; [4]): 0.05 µg/mL; upper limit incorporated owing to low solubility [3]: about 0.5 percent (w/v)
CO[C@H]1/C=C/O[C@@]2(C)Oc3c(C)c(O)c4c(O)c(c(/C=N/N5CCN(C)CC5)c(O)c4c3C2=O)NC(=O)/C(C)=C\C=C\[C@H](C)[C@H](O)[C@@H](C)[C@@H](O)[C@@H](C)[C@H](OC(C)=O)[C@@H]1C [Rifampin (R), rifampin] | 500 (≈ 608 µM) | 25,000 fold | 0.0195 (≈ 0.0237 µM) | 
NC[C@H]1O[C@H](O[C@H]2[C@H](O)[C@@H](O[C@H]3O[C@H](CO)[C@@H](O)[C@H](N)[C@H]3O)[C@H](N)C[C@@H]2N)[C@H](N)C[C@@H]1O [Tobramycin (Tb), tobramycin] | 0.5 (≈ 1.07 µM) | 20 fold | 0.025 (≈ 0.0535 µM) | 
Oc1cc(Cl)ccc1Oc1ccc(Cl)cc1Cl [Triclosan (T), triclosan] | 2.5 (≈ 8.63 µM) | 7 fold | 0.35 (≈ 1.21 µM) | MIC (S. epidermidis [1]; Staphylococcus epidermidis): 0.35 µg/mL; INCREASE IN MIC (S. epidermidis [2]; [6]): 7 fold
polyhexamethylenebiguanide [PHMB] |  |  |  | INCREASE IN MIC (S. epidermidis [2]): 1.0 fold; MIC AFTER PASSAGE (S. epidermidis [2]): 0.31 µg/mL; MIC BEFORE PASSAGE (S. epidermidis [2]): 0.31 µg/mL
